According to patent publication US20240300958A1, “COMPOUNDS AND THE USES AND PHARMACEUTICAL COMPOSITIONS THEREOF” (BEIJING YOUZHUJU NETWORK TECHNOLOGY CO. LTD., priority 2023, published 2024):
Like-named read-outs stand apart in the source and are kept apart here.

What was measured:
Assay in all cases: Kinase inhibition profile (HTRF / ADP Glo kinase assay)
Format in all cases: biochemical
PKCα = PKCα (Homo sapiens (Human), UniProt P17252)
Description: (§1) HTRF kinase assay: 2×ATP and substrate solution as well as 2× kinase and metal solution were prepared with assay buffer. 25 nL of compound was transferred to 384-well assay plate by Echo 655. After centrifugation, 2.5 μL of 2× kinase/metal ion solution was added to the 384-well assay plate followed by incubation at 25° C. for 10 min. 2.5 μL of 2× substrate and ATP solution was added to the wells followed by incubation at 25° C. for 60 min. 2× XL665 and antibody solution was prepared with assay buffer. 5 μL of kinase detection reagent was added to the wells followed by incubation at 25° C. for 60 min. Fluorescence signals at 620 nm (Cryptate) and 665 nm (XL665) were read with a microtiter plate reader. ADP Glo kinase assay: 2×ATP and substrate solution as well as 2× kinase and metal solution were prepared with assay buffer. 20 nL of compound was transferred to 384-well assay plate by Echo 655. 2 μL of 2× kinase/metal ion solution was added followed by incubation at 25° C. for 10 min in the 384-well assay plate. 2 μL of 2× substrate and ATP solution was added to the wells followed by incubation at 25° C. for 60 min. 4 μL of ADP Glo reagent was added to the wells followed by incubation at 25° C. for 40 min. 8 μL of kinase test reagent was added to the wells followed by incubation at 25° C. for 40 min. The luminescence signals were recorded on a microtiter plate reader. Data analysis: the reaction control (0.5% DMSO) reading was set to 0% inhibition, and the background (10 μM positive control) reading was set to 100% inhibition, then the percent inhibition for each test solution was calculated and the results are shown in Table 2 and FIG. 3.

BRAF = BRAF (Homo sapiens (Human), UniProt P15056)
Chain of BRAF (P15056 whole entry, species assumed): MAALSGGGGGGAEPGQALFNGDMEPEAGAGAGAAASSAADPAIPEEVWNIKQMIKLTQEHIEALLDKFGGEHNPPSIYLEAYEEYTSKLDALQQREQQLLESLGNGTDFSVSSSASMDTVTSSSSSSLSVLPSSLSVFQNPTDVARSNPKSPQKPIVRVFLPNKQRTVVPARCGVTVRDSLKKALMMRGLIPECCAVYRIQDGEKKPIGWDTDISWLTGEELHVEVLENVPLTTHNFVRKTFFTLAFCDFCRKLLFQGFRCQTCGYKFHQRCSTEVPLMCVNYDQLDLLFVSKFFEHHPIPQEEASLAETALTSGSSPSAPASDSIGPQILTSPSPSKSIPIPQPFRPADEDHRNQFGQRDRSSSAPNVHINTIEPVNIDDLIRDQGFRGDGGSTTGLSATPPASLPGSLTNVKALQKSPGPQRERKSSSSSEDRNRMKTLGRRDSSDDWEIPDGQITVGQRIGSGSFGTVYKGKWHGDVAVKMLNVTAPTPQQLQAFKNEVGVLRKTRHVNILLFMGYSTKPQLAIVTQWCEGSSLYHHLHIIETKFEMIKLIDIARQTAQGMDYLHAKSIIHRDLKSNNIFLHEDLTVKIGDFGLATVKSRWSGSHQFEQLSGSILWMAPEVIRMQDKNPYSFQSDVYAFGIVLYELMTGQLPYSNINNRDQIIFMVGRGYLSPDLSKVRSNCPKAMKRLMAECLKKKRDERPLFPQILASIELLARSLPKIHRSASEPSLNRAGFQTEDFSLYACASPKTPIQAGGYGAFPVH
Description: as §1

CK1γ2 = CK1γ2 (Homo sapiens (Human), UniProt P78368)
Chain of CK1γ2 (P78368 whole entry): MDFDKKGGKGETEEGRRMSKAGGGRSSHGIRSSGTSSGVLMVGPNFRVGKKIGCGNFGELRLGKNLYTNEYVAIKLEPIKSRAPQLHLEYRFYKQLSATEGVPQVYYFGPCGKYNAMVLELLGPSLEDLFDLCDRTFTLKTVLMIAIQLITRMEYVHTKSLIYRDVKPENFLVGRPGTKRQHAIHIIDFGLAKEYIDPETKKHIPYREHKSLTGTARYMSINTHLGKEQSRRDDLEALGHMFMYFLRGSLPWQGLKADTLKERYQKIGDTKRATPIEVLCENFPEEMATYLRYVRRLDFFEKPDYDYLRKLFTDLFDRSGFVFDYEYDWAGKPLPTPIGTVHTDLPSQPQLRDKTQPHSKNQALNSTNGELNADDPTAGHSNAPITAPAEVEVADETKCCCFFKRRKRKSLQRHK
Description: as §1

PDGFRα = PDGFRα (Homo sapiens (Human), UniProt P16234)
Description: as §1

TIE2 = TIE2 (Homo sapiens (Human), UniProt Q02763)
Description: as §1

Erk2 = Erk2 (Homo sapiens (Human), UniProt P28482)
Description: as §1

SGK = SGK (Homo sapiens (Human), UniProt O00141)
Chain of SGK (O00141 whole entry, species assumed): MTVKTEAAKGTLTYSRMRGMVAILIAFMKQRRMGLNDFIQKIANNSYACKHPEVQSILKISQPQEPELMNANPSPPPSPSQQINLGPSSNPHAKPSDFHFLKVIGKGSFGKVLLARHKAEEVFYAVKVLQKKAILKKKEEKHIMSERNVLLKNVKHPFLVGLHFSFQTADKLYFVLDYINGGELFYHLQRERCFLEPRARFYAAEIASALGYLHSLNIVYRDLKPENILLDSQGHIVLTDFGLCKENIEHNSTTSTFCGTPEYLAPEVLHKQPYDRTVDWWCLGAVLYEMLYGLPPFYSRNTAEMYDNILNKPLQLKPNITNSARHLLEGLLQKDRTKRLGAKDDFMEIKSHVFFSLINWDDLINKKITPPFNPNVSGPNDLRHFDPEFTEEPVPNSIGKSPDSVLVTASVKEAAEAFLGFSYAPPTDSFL
Description: as §1

NEK2 = NEK2 (Homo sapiens (Human), UniProt P51955)
Chain of NEK2 (P51955 whole entry, species assumed): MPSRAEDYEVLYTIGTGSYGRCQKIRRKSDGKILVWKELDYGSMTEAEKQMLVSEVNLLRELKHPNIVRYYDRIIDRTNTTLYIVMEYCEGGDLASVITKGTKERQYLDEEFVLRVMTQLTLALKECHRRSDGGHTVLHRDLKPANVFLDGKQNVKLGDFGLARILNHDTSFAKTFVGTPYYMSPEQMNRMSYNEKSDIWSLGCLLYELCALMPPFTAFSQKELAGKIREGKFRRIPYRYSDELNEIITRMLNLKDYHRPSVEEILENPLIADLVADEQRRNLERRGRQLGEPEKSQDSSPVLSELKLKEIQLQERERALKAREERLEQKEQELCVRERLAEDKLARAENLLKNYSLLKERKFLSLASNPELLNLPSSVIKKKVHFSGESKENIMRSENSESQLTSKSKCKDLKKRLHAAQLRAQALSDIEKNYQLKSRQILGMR
Description: as §1

CK1α = CK1α (Homo sapiens (Human), UniProt P48729)
Description: as §1

MAP2K1 = MAP2K1 (Homo sapiens (Human), UniProt Q02750)
Description: as §1

JNK1 = JNK1 (Homo sapiens (Human), UniProt P45983)
Chain of JNK1 (P45983 whole entry, species assumed): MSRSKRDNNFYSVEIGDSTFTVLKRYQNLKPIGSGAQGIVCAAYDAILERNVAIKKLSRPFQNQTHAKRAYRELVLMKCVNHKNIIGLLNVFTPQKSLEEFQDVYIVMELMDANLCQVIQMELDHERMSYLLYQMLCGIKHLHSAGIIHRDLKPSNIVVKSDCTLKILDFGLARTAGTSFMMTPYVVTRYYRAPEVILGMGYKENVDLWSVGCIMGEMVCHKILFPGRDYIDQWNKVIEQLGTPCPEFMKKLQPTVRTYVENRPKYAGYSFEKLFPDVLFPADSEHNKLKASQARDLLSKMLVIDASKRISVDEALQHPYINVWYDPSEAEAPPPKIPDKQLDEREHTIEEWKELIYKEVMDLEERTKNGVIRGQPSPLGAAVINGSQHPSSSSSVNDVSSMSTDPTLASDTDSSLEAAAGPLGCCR
Description: as §1

ABL1 = ABL1 (Homo sapiens (Human), UniProt P00519)
Description: as §1

PKD2 = PKD2 (Homo sapiens (Human), UniProt Q9BZL6)
Chain of PKD2 (Q9BZL6 whole entry): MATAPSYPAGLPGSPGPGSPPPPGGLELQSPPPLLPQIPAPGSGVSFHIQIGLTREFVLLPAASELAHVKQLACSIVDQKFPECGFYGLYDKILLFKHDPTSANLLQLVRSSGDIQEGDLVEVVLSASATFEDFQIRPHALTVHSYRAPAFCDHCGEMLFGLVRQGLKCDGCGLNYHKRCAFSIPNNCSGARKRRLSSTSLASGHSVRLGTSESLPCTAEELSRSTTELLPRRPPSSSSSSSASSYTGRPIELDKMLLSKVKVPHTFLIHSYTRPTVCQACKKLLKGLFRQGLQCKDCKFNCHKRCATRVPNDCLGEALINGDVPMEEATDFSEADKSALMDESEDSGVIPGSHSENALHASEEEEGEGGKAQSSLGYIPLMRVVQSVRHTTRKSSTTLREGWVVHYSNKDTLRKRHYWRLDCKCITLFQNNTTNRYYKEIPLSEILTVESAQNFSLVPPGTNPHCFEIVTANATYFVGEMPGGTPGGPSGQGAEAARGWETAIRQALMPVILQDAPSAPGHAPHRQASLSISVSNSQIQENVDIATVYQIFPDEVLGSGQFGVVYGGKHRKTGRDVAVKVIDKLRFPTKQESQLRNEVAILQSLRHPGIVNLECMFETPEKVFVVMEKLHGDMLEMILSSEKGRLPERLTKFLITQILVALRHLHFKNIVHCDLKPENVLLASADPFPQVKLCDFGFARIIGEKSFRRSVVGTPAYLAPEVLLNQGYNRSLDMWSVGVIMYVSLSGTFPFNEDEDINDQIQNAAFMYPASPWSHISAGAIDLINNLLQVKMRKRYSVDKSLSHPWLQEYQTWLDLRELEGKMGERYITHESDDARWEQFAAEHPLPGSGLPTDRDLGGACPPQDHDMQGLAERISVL
Description: as §1

SYK = SYK (Homo sapiens (Human), UniProt P43405)
Description: as §1

IKKα = IKKα (Homo sapiens (Human), UniProt O15111)
Description: as §1

CDK5/p35NCK = CDK5/p35NCK (Homo sapiens (Human), UniProt Q00535)
Description: as §1

CLK1 = CLK1 (Homo sapiens (Human), UniProt P49759)
Description: as §1

SRC = SRC (Homo sapiens (Human), UniProt P12931)
Chain of SRC (P12931 whole entry, looked up, species assumed): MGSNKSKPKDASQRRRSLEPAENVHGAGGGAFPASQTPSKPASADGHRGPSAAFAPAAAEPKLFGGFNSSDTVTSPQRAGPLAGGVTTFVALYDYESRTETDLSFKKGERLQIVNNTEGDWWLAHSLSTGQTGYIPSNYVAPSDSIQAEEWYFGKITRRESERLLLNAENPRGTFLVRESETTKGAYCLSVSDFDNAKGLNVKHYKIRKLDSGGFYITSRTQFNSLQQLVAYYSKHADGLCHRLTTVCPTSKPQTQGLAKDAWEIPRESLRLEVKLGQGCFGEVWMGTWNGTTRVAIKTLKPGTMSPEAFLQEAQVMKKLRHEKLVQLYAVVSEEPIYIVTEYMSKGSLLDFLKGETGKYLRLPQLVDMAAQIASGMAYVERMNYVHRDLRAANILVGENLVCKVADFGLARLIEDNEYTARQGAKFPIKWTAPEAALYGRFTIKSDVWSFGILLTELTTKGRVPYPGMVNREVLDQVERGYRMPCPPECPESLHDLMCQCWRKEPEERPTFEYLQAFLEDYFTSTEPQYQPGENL
Description: as §1

p38α = p38α (Homo sapiens (Human), UniProt Q16539)
Chain of p38α (Q16539 whole entry): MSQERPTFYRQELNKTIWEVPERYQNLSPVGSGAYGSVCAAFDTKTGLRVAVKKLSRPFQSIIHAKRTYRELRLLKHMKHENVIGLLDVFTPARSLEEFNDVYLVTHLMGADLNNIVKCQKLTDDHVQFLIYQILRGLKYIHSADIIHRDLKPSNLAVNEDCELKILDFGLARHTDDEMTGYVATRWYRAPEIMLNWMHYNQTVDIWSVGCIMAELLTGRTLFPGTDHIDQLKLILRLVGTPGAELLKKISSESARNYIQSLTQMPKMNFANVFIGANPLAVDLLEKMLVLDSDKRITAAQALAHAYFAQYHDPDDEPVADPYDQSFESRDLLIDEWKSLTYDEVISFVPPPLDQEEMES
Description: as §1

PLK1 = PLK1 (Homo sapiens (Human), UniProt P53350)
Description: as §1

HPK1 = HPK1 (Homo sapiens (Human), UniProt Q92918)
Description: as §1

CHK1 = CHK1 (Homo sapiens (Human), UniProt O14757)
Description: as §1

[1] = 1 uM Compound C1, read-out: % Inhibition (First measurement)
[2] = 1 uM Compound C1, read-out: % Inhibition (Second measurement)
[3] = 1 uM Compound C1, read-out: Average inhibition (%)

Cc1ccc(C(=O)Nc2ccccn2)cc1C#Cc1cnc2cc(C3=CCCCC3)cnn12 [Compound C1, 3-{2-[7-(cyclohex-1-en-1-yl)imidazo[1,2-b]pyridazin-3-yl]ethynyl}-4-methyl-N-(pyridin-2-yl)benzamide]
inhibition at 1 µM (PKCα; [1]): -1.67%
inhibition at 1 µM (PKCα; [2]): -17.2%
inhibition at 1 µM (PKCα; [3]): -9.44%
inhibition at 1 µM (BRAF; [1]): -6.73%
inhibition at 1 µM (BRAF; [2]): -23.9%
inhibition at 1 µM (BRAF; [3]): -15.3%
inhibition at 1 µM (CK1γ2; [1]): -6.26%
inhibition at 1 µM (CK1γ2; [2]): -6.88%
inhibition at 1 µM (CK1γ2; [3]): -6.57%
inhibition at 1 µM (PDGFRα; [1]): 84.1%
inhibition at 1 µM (PDGFRα; [2]): 84.8%
inhibition at 1 µM (PDGFRα; [3]): 84.4%
inhibition at 1 µM (TIE2; [1]): -5.65%
inhibition at 1 µM (TIE2; [2]): 6.2%
inhibition at 1 µM (TIE2; [3]): 0.28%
inhibition at 1 µM (Erk2; [1]): 20.2%
inhibition at 1 µM (Erk2; [2]): 19.3%
inhibition at 1 µM (Erk2; [3]): 19.8%
inhibition at 1 µM (SGK; [1]): -8.79%
inhibition at 1 µM (SGK; [2]): -6.61%
inhibition at 1 µM (SGK; [3]): -7.7%
inhibition at 1 µM (NEK2; [1]): 8.18%
inhibition at 1 µM (NEK2; [2]): 2.89%
inhibition at 1 µM (NEK2; [3]): 5.54%
inhibition at 1 µM (CK1α; [1]): 5.8%
inhibition at 1 µM (CK1α; [2]): -5.89%
inhibition at 1 µM (CK1α; [3]): -0.04%
inhibition at 1 µM (MAP2K1; [1]): -5.72%
inhibition at 1 µM (MAP2K1; [2]): -3.53%
inhibition at 1 µM (MAP2K1; [3]): -4.62%
inhibition at 1 µM (JNK1; [1]): 4.56%
inhibition at 1 µM (JNK1; [2]): 5.69%
inhibition at 1 µM (JNK1; [3]): 5.13%
inhibition at 1 µM (ABL1; [1]): 43.2%
inhibition at 1 µM (ABL1; [2]): 50.7%
inhibition at 1 µM (ABL1; [3]): 47%
inhibition at 1 µM (PKD2; [1]): -7.86%
inhibition at 1 µM (PKD2; [2]): -6.58%
inhibition at 1 µM (PKD2; [3]): -7.22%
inhibition at 1 µM (SYK; [1]): 5.21%
inhibition at 1 µM (SYK; [2]): -2.04%
inhibition at 1 µM (SYK; [3]): 1.59%
inhibition at 1 µM (IKKα; [1]): -18%
inhibition at 1 µM (IKKα; [2]): -12.9%
inhibition at 1 µM (IKKα; [3]): -15.5%
inhibition at 1 µM (CDK5/p35NCK; [1]): 31.2%
inhibition at 1 µM (CDK5/p35NCK; [2]): 31.2%
inhibition at 1 µM (CDK5/p35NCK; [3]): 31.2%
inhibition at 1 µM (CLK1; [1]): 2.98%
inhibition at 1 µM (CLK1; [2]): 12.3%
inhibition at 1 µM (CLK1; [3]): 7.67%
inhibition at 1 µM (SRC; [1]): -0.76%
inhibition at 1 µM (SRC; [2]): -1.13%
inhibition at 1 µM (SRC; [3]): -0.94%
inhibition at 1 µM (p38α; [1]): 3.39%
inhibition at 1 µM (p38α; [2]): -3.27%
inhibition at 1 µM (p38α; [3]): 0.06%
inhibition at 1 µM (PLK1; [1]): 24.1%
inhibition at 1 µM (PLK1; [2]): 20.6%
inhibition at 1 µM (PLK1; [3]): 22.4%
inhibition at 1 µM (HPK1; [1]): 23.9%
inhibition at 1 µM (HPK1; [2]): 24.7%
inhibition at 1 µM (HPK1; [3]): 24.3%
inhibition at 1 µM (CHK1; [1]): -10.6%
inhibition at 1 µM (CHK1; [2]): -13.6%
inhibition at 1 µM (CHK1; [3]): -12.1%
